Test results reported in article PMC5831858, “Pharmacological characterisation of CR6086, a potent prostaglandin E2 receptor 4 antagonist, as a new potential disease-modifying anti-rheumatic drug” (Arthritis Research & Therapy, 2018).
Marks after values point to notes of the source that are not given here.

Legend:
[1] = tested on: arthritic mice (collagen-induced arthritis model); test: CIA in mice, third study (CR6086, MTX, combination): clinical score, oedema, histology; format: in vivo, mouse; details: for CLINICAL SCORE (interquartile range): median (IQR)
[2] = tested on: arthritic mice (collagen-induced arthritis model); test: Serum anti-bCII IgG antibodies (ELISA), CIA mice third study; format: in vivo, mouse; details: end of treatment
Description: In a third study, mice were randomised into the following treatment groups: naive, vehicle, 30 mg/kg CR6086, 1 or 3 mg/kg MTX, with the latter administered alone or in combination with 30 mg/kg CR6086. CR6086 was administered orally once daily. MTX was administered intraperitoneally three times per week (every third day). Mice were treated with test drugs for 16 days.
At the end of the treatment period, animals were killed, and their paws were explanted and processed for histology. In the third study, the serum concentrations of immunoglobulin G (IgG) antibodies against bCII were measured by ELISA (catalogue number 2032; Chondrex, Redmond, WA, USA).

[3] = tested on: arthritic rats (collagen-induced arthritis model); test: Mechanical hyperalgesia (PAM) in CIA rats; format: in vivo, rat; details: 15 mg/kg, mean ± SEM
Description: (§1) Male Lewis rats were immunised by intradermal injection at the base of the tail with an emulsion containing 150 μg of bovine collagen type II (bCII) in complete Freund’s adjuvant (CFA) or received an injection with incomplete Freund’s adjuvant (sham group). Three weeks after the first immunisation, animals were boosted with the same procedure. Three days after booster injection, arthritis had developed in all animals but the sham group. Oedema was assessed via plethysmometer (Ugo Basile, Varese, Italy), and the animals were then randomised to treatment groups. Oedema measurement was performed again after 7 and 14 days of treatment. Animals were blindly scored by two different investigators for clinical signs of arthritis (redness, swelling, pain of hind limb joints) as follows: 0 = normal; 1 = mild but definite redness and swelling of the ankle or wrist or individual digits, regardless of the number of affected digits; 2 = moderate redness and swelling of ankle or wrist; 3 = severe redness and swelling of the entire paw including digits; and 4 = maximally inflamed limb with involvement of multiple joints. The mean of the scores assigned by the investigators was calculated.
In the comparative experiment vs rofecoxib, mechanical hyperalgesia was assessed at the end of treatment by using a digital pressure application measurement (PAM) device (Ugo Basile). Increasing pressure was applied to the lateral side of the knee until the animal attempted to escape or vocalised. The force required to elicit this response was measured in grams (gram-force). An optimal stimulus increase rate of 100 g/second was used, and mechanical thresholds were reached after approximately 10 seconds. This increase was visualised with a rate meter on the built-in display, so the pressure applied was visually controlled. At the end of the experiment, animals were killed, and their hind paws were explanted and processed for histology.

[4] = tested on: arthritic rats (collagen-induced arthritis model); test: Collagen-induced arthritis in rats: clinical score, oedema, histology; format: in vivo, rat; details: 15 mg/kg once daily
Description: as §1
Three different experiments in rat CIA are reported: a dose-response study, as well as two comparative studies vs the COX-2 inhibitor rofecoxib and the Janus kinase (JAK) inhibitor tofacitinib, respectively.
Briefly, the paws were fixed in 10% neutral buffered formalin (Bio-Optica, Milan, Italy) and subsequently decalcified in EDTA for 4 weeks. Samples were dehydrated in an ethanol series and embedded in paraffin. At least three non-consecutive sections for each paw were blindly scored at the level of the tarsus, metatarsus and calcaneus for the following histological features: synovial oedema, pannus, synovial inflammatory cell infiltrate, cartilage damage, osteolysis and woven bone. Based on these histological features, a synovial score (synovial oedema, plus synovial inflammatory cell infiltrate, plus pannus), a bone score (woven bone plus osteolysis) and a total score were calculated. Two independent pathologists performed histopathology on blinded slides. The data of right and left hind limbs were summed for each rat.

[5] = tested on: arthritic mice (collagen-induced arthritis model); test: FACS analysis of cell populations in the joint, CIA mice; format: in vivo, mouse; details: CR6086 60 mg/kg, naproxen 60 mg/kg, etanercept 10 mg/kg, mean ± SEM
Description: (§2) In a first study, mice were randomised into the following treatment groups: vehicle, 30 mg/kg CR6086, 60 mg/kg CR6086, 60 mg/kg naproxen and 10 mg/kg etanercept. Animals received the test drugs for 10 days. CR6086 and naproxen were administered orally once daily, whereas etanercept was administered intraperitoneally every other day. Animals treated with vehicle, 60 mg/kg CR6086, naproxen and etanercept were additionally analysed for the proportion of populations of Th17 cells, Th1 cells, regulatory T cells, B cells, macrophages, neutrophils and dendritic cells by fluorescence-activated cell sorting (FACS) after collection of blood, draining lymph nodes and joints.

[6] = tested on: arthritic mice (collagen-induced arthritis model); test: CIA in mice, first study: clinical score and paw swelling; format: in vivo, mouse; details: 10 days; CR6086 30 and 60 mg/kg, naproxen 60 mg/kg oral once daily; etanercept 10 mg/kg i.p. every other day
Description: Male DBA/1 mice were immunised by intradermal injection at the base of the tail with an emulsion of 200 μg of bCII in CFA containing 3 mg/ml Mycobacterium tuberculosis. Non-immunised mice served as the negative control of disease. Animals were monitored by visual inspection for appearance of peripheral oedema. […] Upon onset, animals were recruited and randomised. Recruitment was given a cut-off at day 40. Upon recruitment, arthritis clinical score was assigned, and oedema was measured via caliper.
as §2
Oedema measurement was performed every day before treatment, and all animals were blindly scored for clinical signs of arthritis as follows: 0 = normal; 1 = slight swelling and/or erythema; 2 = pronounced oedematous swelling; and 3 = ankyloses and severe swelling. A score of 0.5 was given to swollen toe/toes or when inflammation was localised to one part of the foot. Each limb was measured separately, with a final score based on the sum of the scores from all four paws.

## CN(Cc1cnc2nc(N)nc(N)c2n1)c1ccc(C(=O)N[C@@H](CCC(=O)O)C(=O)O)cc1 [MTX, methotrexate]
[1]; 16 days, 30 mg/kg CR6086, 3 mg/kg MTX, alone or combined
  effect on joint histopathology: significantly improved all histological features of arthritis
[1]; DAY 0, 1 mg/kg MTX
  CLINICAL SCORE (interquartile range): 3.0 (2.4 – 3.3) *
[1]; DAY 0, 3 mg/kg MTX
  CLINICAL SCORE (interquartile range): 2.0 (2.0 – 2.0) *
[1]; DAY 1, 1 mg/kg MTX
  CLINICAL SCORE (interquartile range): 2.8 (2.0 – 3.0)
[1]; DAY 1, 3 mg/kg MTX
  CLINICAL SCORE (interquartile range): 2.3 (2.0 – 3.0)
[1]; DAY 2, 1 mg/kg MTX
  CLINICAL SCORE (interquartile range): 3.0 (3.0 – 4.0)
[1]; DAY 2, 3 mg/kg MTX
  CLINICAL SCORE (interquartile range): 3.0 (2.1 – 3.8)
[1]; DAY 3, 1 mg/kg MTX
  CLINICAL SCORE (interquartile range): 4.0 (3.0 – 4.8)
[1]; DAY 3, 3 mg/kg MTX
  CLINICAL SCORE (interquartile range): 3.0 (2.3 – 6.0)
[1]; DAY 4, 1 mg/kg MTX
  CLINICAL SCORE (interquartile range): 3.5 (3.0 – 5.5)
[1]; DAY 4, 3 mg/kg MTX
  CLINICAL SCORE (interquartile range): 4.0 (2.0 – 5.5)
[1]; DAY 5, 1 mg/kg MTX
  CLINICAL SCORE (interquartile range): 5.0 (3.4 – 6.3)
[1]; DAY 5, 3 mg/kg MTX
  CLINICAL SCORE (interquartile range): 3.5 (2.4 – 4.8)
[1]; DAY 6, 1 mg/kg MTX
  CLINICAL SCORE (interquartile range): 4.8 (3.3 – 8.1)
[1]; DAY 6, 3 mg/kg MTX
  CLINICAL SCORE (interquartile range): 4.0 (2.0 – 5.5)
[1]; DAY 7, 1 mg/kg MTX
  CLINICAL SCORE (interquartile range): 4.5 (2.8 – 7.5)
[1]; DAY 7, 3 mg/kg MTX
  CLINICAL SCORE (interquartile range): 4.5 (2.6 – 6.0)
[1]; DAY 8, 1 mg/kg MTX
  CLINICAL SCORE (interquartile range): 5.5 (3.8 – 7.6)
[1]; DAY 8, 3 mg/kg MTX
  CLINICAL SCORE (interquartile range): 4.3 (2.4 – 6.4)
[1]; DAY 9, 1 mg/kg MTX
  CLINICAL SCORE (interquartile range): 5.0 (3.3 – 7.0)
[1]; DAY 9, 3 mg/kg MTX
  CLINICAL SCORE (interquartile range): 4.5 (3.0 – 5.0)
[1]; DAY 10, 1 mg/kg MTX
  CLINICAL SCORE (interquartile range): 6.5 (3.0 – 7.3)
[1]; DAY 10, 3 mg/kg MTX
  CLINICAL SCORE (interquartile range): 5.0 (2.5 – 5.5)
[1]; DAY 11, 1 mg/kg MTX
  CLINICAL SCORE (interquartile range): 7.3 (4.4 – 7.5)
[1]; DAY 11, 3 mg/kg MTX
  CLINICAL SCORE (interquartile range): 5.0 (2.5 – 6.0)
[1]; DAY 12, 1 mg/kg MTX
  CLINICAL SCORE (interquartile range): 6.8 (5.3 – 7.5)
[1]; DAY 12, 3 mg/kg MTX
  CLINICAL SCORE (interquartile range): 5.5 (2.0 – 7.5)
[1]; DAY 13, 1 mg/kg MTX
  CLINICAL SCORE (interquartile range): 6.3 (4.5 – 7.0)
[1]; DAY 13, 3 mg/kg MTX
  CLINICAL SCORE (interquartile range): 6.0 (2.0 – 7.0)
[1]; DAY 14, 1 mg/kg MTX
  CLINICAL SCORE (interquartile range): 7.3 (5.0 – 7.6)
[1]; DAY 14, 3 mg/kg MTX
  CLINICAL SCORE (interquartile range): 4.5 (2.0 – 6.0)
[1]; DAY 15, 1 mg/kg MTX
  CLINICAL SCORE (interquartile range): 6.5 (5.0 – 7.5)
[1]; DAY 15, 3 mg/kg MTX
  CLINICAL SCORE (interquartile range): 4.5 (3.1 – 7.0)
[1]; DAY 16, 1 mg/kg MTX
  CLINICAL SCORE (interquartile range): 6.5 (5.5 – 8.3)
[1]; DAY 16, 3 mg/kg MTX
  CLINICAL SCORE (interquartile range): 4.5 (2.3 – 5.4)
[2]; 1 mg/kg MTX
  Anti-collagen II: 483.83 ± 102.82 µg/mL
[2]; 3 mg/kg MTX
  Anti-collagen II: 242.46 ± 79.35 µg/mL

## CS(=O)(=O)c1ccc(C2=C(c3ccccc3)C(=O)OC2)cc1 [rofecoxib, reference compound]
[3]; Day 0
  Mechanical hyperalgesia, Day 0: 943.70 ± 73.42^a gram-force
[3]; Day 7
  Mechanical hyperalgesia, Day 7: 673.18 ± 53.76^b gram-force
[3]; Day 14
  Mechanical hyperalgesia, Day 14: 799.68 ± 61.15^b,c gram-force
[4]
  effect on clinical score: small effect
[4]; 14 days
  effect on structural and inflammatory parameters (oedema, histology): improved to a slight but significant extent the inflammatory parameters (not the structural ones)

## etanercept
[5]
  B cells, Percentage of total cells: 5.74 ± 0.68%
  Dendritic cells, Percentage of total cells: 1.51 ± 0.18%
  Macrophages, Percentage of total cells: 12.31 ± 5.19%
  Neutrophils, Percentage of total cells: 10.53 ± 2.81%
  Th1, Percentage of total cells: 0.20 ± 0.05^a %
  Th17, Percentage of total cells: 0.16 ± 0.08%
  Treg, Percentage of total cells: 0.39 ± 0.10%
[6]
  effect on disease parameters (visual clinical score, paw swelling) vs vehicle: significantly improved
